{
  "source": "patent US20090286738A1",
  "about": "“Gene Regulation” (ST. GEORGE'S ENTERPRISES LIMITED, priority 2005, published 2009)",
  "key": {"[1]": {"test_system": "malignant cell lines (B16 mouse melanoma, LNCAP human prostate cancer, K562)", "test": "Activity of peptides on different malignant cell lines, living and dead cells after 3 hours (FIGS. 6 to 8)", "format": "cell-based", "settings": "further experiments", "procedure": "(§1) The peptides as indicated were applied to the cells at a concentration of 60 μM (FIG. 6A) or 6 μM (FIG. 6B). In both experiments the HXArg9, CX1Arg9 and CX2Arg9 peptides used were the (2D) variant peptides in which the N- and C-terminal amino acids are in the D conformation and all remaining amino acids are in the L conformation. The number of living and dead cells were assessed after 3 hours. Black bars=% or number of cells dead. White bars=% or number of cells alive.\nas §1, with “7A)” for “6A)”, “7B).” for “6B).”\nas §1, with “μM. HXArg9(2D) is” for “μM (FIG. 6A) or 6 μM (FIG. 6B). In both experiments”, “variant form of HXArg9 in which the N-terminal and C-terminal amino acids are in the D conformation and the remaining amino acids are in the L conformation. HXArg9 consists of only L-conformation amino acids. The” for “HXArg9,”, “bars=%” for “bars=% or number of”\n(§2) Cell lines were seeded at 4×10^4 cells/ml in liquid culture system made of RPMI-1640 medium (Life Technologies, UK) supplemented with Foetal Calf Serum (10% Sigma Aldrich) and penicillin/streptomycin (1%, Sigma) and at least in duplicate. When required the test peptide was added to the medium. Cell lines were cultured for up to 7 days at 37° C., 5% CO2 in humidified atmosphere. Cultured cells were then assessed for cell viability/enumeration using trypan blue exclusion (Sigma Aldrich).\nThe activity of the peptides described above was tested on a number of different malignant cell lines using a similar assay to that described previously."}, "[2]": {"test": "Stability of peptides in human plasma at 37° C., SDS-PAGE", "format": "in vitro ADME", "procedure": "Peptides were incubated in human serum for the times shown and then visualised on a Coomassie brilliant blue stained gel. The arrow heads indicate the position of intact peptide. Standard=peptide only in this lane as a marker.\nThe stability of HXArg9(2D) and CX2Arg9(2D) was assessed by incubation each with human plasma at 37° C. and the amount of peptide remaining after different amounts of time was assessed by SDS-PAGE. Each peptide was added to freshly prepared human plasma to a final concentration of 1 mM in a total volume of 40 μl. Samples were incubated at 37° C. and reactions were stopped by adding 60 μl of water and 0.9 ml of protein gel loading buffer (BioRad, USA) containing 1% 2-mercaptoethanol, and heating to 95° C. for four minutes. 2 μl of each sample was run on a 22% acrylamide gel. […] This compared with a half life of approximately 40 minutes for the L isomer form HXArg9."}, "[3]": {"test_system": "B16 murine melanoma cells", "test": "Living and dead B16 cells after 3 hours (FIGS. 2A, 9)", "format": "cell-based", "settings": "3 hours", "procedure": "In FIG. 2A the peptides as indicated were applied to the cells at a concentration of 60 μM. The number of living and dead cells were assessed after 3 hours. Black bars=number of cells dead. White bars=number of cells alive.\nas §1\nThe HXArg9 peptide used was the (2D) variant peptide in which the N- and C-terminal amino acids are in the D conformation and all remaining amino acids are in the L conformation. HXArg9 was applied to the cells at a variety of concentrations (μM), and the number of dead and living cells was assessed after 3 hours. Black bars=% cells dead. White bars=% cells alive.\nas §2"}, "B16 tumours [4]": {"test_system": "B16 tumours", "test": "QPCR of RNA extracted from treated B16 tumours", "format": "in vivo, mice", "settings": "IP 15 mg/Kg, two hours after treatment", "procedure": "FIG. 10. […] RNA extracted from (a) B16 cells cultured in vitro and treated with 60 μM peptide for two hours, and (b) B16 tumours treated with peptide injected IP at 15 mg/Kg body weight; tumours were excised and RNA was extracted two hours after treatment. Results are expressed as a proportion of the level of β-actin transcripts. For (a), the results are an average of 2 separate experiments, for (b), the results are an average for tumours taken from three individual mice. U, untreated; C, CX2Arg9(2D) treated; H, HXArg9(2D) treated. Error bars represent the standard error of the mean.\n(§3) In order to assess whether the hexapeptide could block HOX/PBX binding in vivo, tumours were treated with HXArg9 for two hours and then used to produce nuclear lysates."}, "HOX/PBX/DNA complexes": {"test_system": "HOX/PBX/DNA complexes", "test": "Band shift assay, protein extracted from treated B16 tumours", "format": "in vivo, mice", "settings": "tumours treated for two hours", "procedure": "Double stranded oligodexoynucleotide probes were incubated in protein extracted from B16 tumours. One of these probes (HP) contained a HOX/PBX consensus binding region (bold)—5′ CTGTTTGATT TATTTGTTTA 3′. A second, control probe (CP) contained an altered HOX/PBX binding site that is not predicted to bind HOX and PBX proteins—5′ CTGTTACTGA CGATTGTTTA 3′. […] The mobility of CP was unchanged by incubating with the protein extract (lane 11). […] U, untreated; C, CX2Arg9(2D) treated; H, HXArg9(2D) treated; +HP, the HP probe was added to the lysates with an excess of unlabelled probe as shown (0, 5 fold, or 25 fold); +CP, control probe added to lysates; ‘+anti PBX’, anti-PBX antibody added to lysate; ‘+block pep’, a blocking peptide was added to the lysate that blocks anti-PBX antibody from binding to PBX.\nas §3"}, "B16 tumours [5]": {"test_system": "B16 tumours", "test": "Treatment of murine B16 tumours in vivo", "set-up": "species or system mice", "settings": "15 mg/kg intraperitoneal", "procedure": "FIG. 12. Treatment of murine B16 tumours in vivo. Mice were injected with one million B16 cells subcutaneously and treatment was started when tumours first became palpatable (day 1=first day after treatment). Mice were injected once daily for four days with an intraperitoneal dose of 15 mg/kg. (a) Changes in tumour size over treatment period (n=4). (b) Histological sections of tumours from HXArg9(2D) (HXR9) and CX2Arg9(2D) (CXR9) treated mice at the end of treatment.\nMice were maintained at the Biological Resource Facility at St. George's. Their care was in accordance to Home Office regulations. B16 cells in exponential growth phase were injected subcutaneously at a dose of 1×10^6 cells into C57black/6 mice. Tumour growth was monitored daily. Once tumours were established, mice received 15 mg/kg HXArg9(2D) intraperitoneal. Mice were euthanised and tumours excised and fixed for histopathological analysis.\n(§4) Control groups received control peptide and PBS accordingly. For the A549 tumour model, […] were used to establish flank models. This study was conducted by Perry Scientific Inc., USA.\nThe B16 F10 murine tumour is a well established in vivo model of melanoma, and is also one of the most aggressive murine tumours (Fidler, I. J. & Nicolson, G. L. Isr. J. Med. Sci. 14, 38-50 (1978), Shrayer, D. et al. Cancer Immunol Immunother. 40, 277-282 (1995)). […]"}, "A549 tumours": {"test_system": "A549 tumours", "test": "Treatment of A549 tumours in vivo", "set-up": "species or system mice", "settings": "twice weekly, 100 mg/kg followed by 10 mg/kg", "procedure": "FIG. 13. Treatment of A549 tumours in vivo. Nude mice were injected with one million A549 cells subcutaneously and treatment was started when tumours reached an average volume of 100 mm^3. […] (a) intralesional (IT) administration, (b) intraperitoneal (IP) administration.\nas §4\nWe also examined whether HXArg9 could block the growth of a non-melanoma tumour in vivo. In order to do this, we established flank tumours using the non-small cell lung cancer derived cell line A549 (Lieber, M., et al. Int. J. Cancer 17, 62-70 (1976)) in nude mice."}},
  "data": [
    {"smiles": "CSCC[C@H](NC(=O)[C@H](Cc1c[nH]c2ccccc12)NC(=O)[C@@H]1CCCN1C(=O)[C@H](Cc1ccc(O)cc1)NC(=O)[C@@H](N)Cc1c[nH]c2ccccc12)C(=O)N[C@@H](CCCCN)C(=O)N[C@@H](CCCCN)C(=O)N[C@@H](Cc1c[nH]cn1)C(=O)N[C@@H](Cc1c[nH]cn1)C(=O)N[C@@H](CCCNC(=N)N)C(=O)N[C@@H](CCCNC(=N)N)C(=O)N[C@@H](CCCNC(=N)N)C(=O)N[C@@H](CCCNC(=N)N)C(=O)N[C@@H](CCCNC(=N)N)C(=O)N[C@@H](CCCNC(=N)N)C(=O)N[C@@H](CCCNC(=N)N)C(=O)N[C@@H](CCCNC(=N)N)C(=O)N[C@@H](CCCNC(=N)N)C(=O)O", "note": "[HXArg9, WYPWMKKHHRRRRRRRRR]", "values": [
      {"measurement": "effectiveness in preventing cellular proliferation compared with HXP4", "setting": "[1]", "value": "as effective as HXP4"},
      {"measurement": "half-life", "setting": "[2]", "value": "~40", "unit": "min"},
      {"measurement": "ablation of cells", "setting": "[3]; 4.625 μM", "value": "significant ablation"},
      {"measurement": "ablation of cells", "setting": "[3]; 37 μM", "value": "ablation of substantially all"},
      {"measurement": "ablation of cells", "setting": "[3]; 74 μM", "value": "ablation of substantially all"},
      {"measurement": "transcripts of Fos, Jun, Dusp1 and Atf3 (QPCR)", "setting": "B16 tumours [4]", "value": "upregulated"},
      {"measurement": "binding of tumour protein extract to HOX/PBX consensus probe", "setting": "HOX/PBX/DNA complexes", "value": "could not bind a DNA probe containing a HOX/PBX consensus binding site"},
      {"measurement": "histological analysis of excised tumours", "setting": "B16 tumours [5]", "value": "inner cell death"},
      {"measurement": "tumour size at end point", "setting": "B16 tumours [5]; once daily for four days", "value": "significant degree of shrinkage"},
      {"measurement": "tumour growth", "setting": "A549 tumours", "value": "significant reduction in tumour growth"}
    ]}
  ]
}
